From patent publication US20170190705A1, “Compositions and Methods for Inhibiting BMP” (THE BRIGHAM AND WOMAN'S HOSPITAL, INC., priority 2014, published 2017)

What was measured:
RIPK2 = RIPK2 (Homo sapiens, UniProt O43353); test: Kinome profiling RIPK2; type: biochemical; conditions: Table 4, read-out: Inhibitory Activity RIPK2
Experimental: . The kinome-wide selectivity was determined following the methods previously reported by Mohedas et al., ACS Chem Biol 2013, 8, 1291-1302 and Sanvitale et al., PLoS One 2013, 8, e62721.

caALK1 = biological target: T1, caALK1 (Homo sapiens, UniProt P37023, Q201D); test: Luciferase reporter assay constitutively active ALK1; conditions: read-out: Cell Based Assay caALK1 IC50
T1 construct: expressed in transfected cells; host or cells: C2C12 BRE-Luc cells infected with adenovirus (MOI 100)
T1 sequence (P37023 22-503 Q201D): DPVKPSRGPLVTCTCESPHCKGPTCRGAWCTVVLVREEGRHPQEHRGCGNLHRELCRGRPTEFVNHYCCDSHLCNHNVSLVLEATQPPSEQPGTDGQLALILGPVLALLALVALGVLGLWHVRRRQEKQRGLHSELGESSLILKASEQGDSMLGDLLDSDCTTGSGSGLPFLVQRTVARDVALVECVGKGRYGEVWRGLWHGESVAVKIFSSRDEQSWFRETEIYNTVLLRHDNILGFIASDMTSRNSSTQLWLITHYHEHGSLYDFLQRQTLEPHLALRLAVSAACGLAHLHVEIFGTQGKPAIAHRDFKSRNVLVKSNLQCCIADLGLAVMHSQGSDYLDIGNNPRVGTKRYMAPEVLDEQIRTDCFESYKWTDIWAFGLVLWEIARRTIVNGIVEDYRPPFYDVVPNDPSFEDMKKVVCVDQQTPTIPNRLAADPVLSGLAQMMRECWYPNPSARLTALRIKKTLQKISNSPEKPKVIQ
Experimental: The cells were incubated for 1 h (37° C. and 10% CO2) and allowed to settle and attach. Compounds of interest or DMSO were diluted in DMEM and added at final compound concentrations of 1 nM to 10 μM. Cells were then incubated for 30 min. Adenovirus expressing constitutively active BMP and TGF-β type I receptors (Ad.caALK1-5), generously provided by Dr. Akiko Hata (University of to California at San Francisco), were added to achieve a multiplicity of infection (MOI) of 100. Plates were incubated overnight at 37° C. Cell viability was assayed with an MIT (3-(4,5-dimethylthiazol-2-yl)-2,5-diphenyl tetrazolium bromide) colorimetric assay (Promega) per the manufacturer's instructions. Media was discarded, and firefly luciferase activity was measured (Promega) according to manufacturer's protocol. Light output was measured using a Spectramax L luminometer (Molecular Devices) with an integration time of one second per well. Data was normalized to 100% of incremental BRE-Luc activity due to adenoviruses specifying caALK1, 2, or 3, or the incremental CAGA-Luc activity due to adenoviruses specifying caALK4 or 5.

Chain of RIPK2 (O43353 whole entry): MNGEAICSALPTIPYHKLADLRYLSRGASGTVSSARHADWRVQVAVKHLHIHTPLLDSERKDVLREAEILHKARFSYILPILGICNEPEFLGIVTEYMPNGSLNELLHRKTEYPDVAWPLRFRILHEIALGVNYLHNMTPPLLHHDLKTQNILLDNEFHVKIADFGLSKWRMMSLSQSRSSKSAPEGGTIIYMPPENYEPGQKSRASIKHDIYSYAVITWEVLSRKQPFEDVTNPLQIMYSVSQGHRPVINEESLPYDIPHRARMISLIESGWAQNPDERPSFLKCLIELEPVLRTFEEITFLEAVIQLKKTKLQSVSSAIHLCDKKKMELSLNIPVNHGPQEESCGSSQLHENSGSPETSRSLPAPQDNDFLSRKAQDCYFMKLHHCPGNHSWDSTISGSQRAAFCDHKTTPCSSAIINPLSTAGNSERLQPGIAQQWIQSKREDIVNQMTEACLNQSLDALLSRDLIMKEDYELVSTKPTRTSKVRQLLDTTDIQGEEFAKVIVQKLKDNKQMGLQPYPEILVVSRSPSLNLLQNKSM

COc1cc(-c2cc(-c3ccc(N4CCNCC4)cc3)cnc2C)cc(OC)c1OC [Compound 10, 1-(4-(6-methyl-5-(3,4,5-trimethoxyphenyl)pyridin-3-yl)phenyl)piperazine]
inhibition at 0.1 µM (RIPK2; 100 nM): 71%
inhibition at 1 µM (RIPK2; 1 μM): 97%

COc1cc(-c2cc(-c3ccc(N4CCNCC4)cc3)cnc2N)cc(OC)c1OC [Compound 15, 5-(4-(piperazin-1-yl)phenyl)-3-(3,4,5-trimethoxyphenyl)pyridin-2-amine]
IC50 (caALK1): 24 nM
